Measured values published in ChEMBL document CHEMBL6092149, “Discovery of 1(2H)-phthalazinone and 1(2H)-isoquinolinone derivatives as potent hematopoietic progenitor kinase 1 (HPK1) inhibitors” (Eur J Med Chem, 2024).

Experiments:
[1] = AUC (0 to 24 hrs) in overnight fasted mouse at 10 mg/kg, po; format: ADME, organism-based; conditions: in vivo
[2] = biological target: Mitogen-activated protein kinase kinase kinase kinase 2 (Homo sapiens, UniProt Q12851); assay: Inhibition of N-terminal GST tagged recombinant human MAP4K2 (1 to 820 residues) expressed in Sf21 insect cells preincubated for 10 min followed by fluorescein PKC and ATP addition and measured after 90 min by Envision2104 Multilabel Reader analysis
Sequence of Mitogen-activated protein kinase kinase kinase kinase 2 (Q12851 whole entry, the tested form may be a part): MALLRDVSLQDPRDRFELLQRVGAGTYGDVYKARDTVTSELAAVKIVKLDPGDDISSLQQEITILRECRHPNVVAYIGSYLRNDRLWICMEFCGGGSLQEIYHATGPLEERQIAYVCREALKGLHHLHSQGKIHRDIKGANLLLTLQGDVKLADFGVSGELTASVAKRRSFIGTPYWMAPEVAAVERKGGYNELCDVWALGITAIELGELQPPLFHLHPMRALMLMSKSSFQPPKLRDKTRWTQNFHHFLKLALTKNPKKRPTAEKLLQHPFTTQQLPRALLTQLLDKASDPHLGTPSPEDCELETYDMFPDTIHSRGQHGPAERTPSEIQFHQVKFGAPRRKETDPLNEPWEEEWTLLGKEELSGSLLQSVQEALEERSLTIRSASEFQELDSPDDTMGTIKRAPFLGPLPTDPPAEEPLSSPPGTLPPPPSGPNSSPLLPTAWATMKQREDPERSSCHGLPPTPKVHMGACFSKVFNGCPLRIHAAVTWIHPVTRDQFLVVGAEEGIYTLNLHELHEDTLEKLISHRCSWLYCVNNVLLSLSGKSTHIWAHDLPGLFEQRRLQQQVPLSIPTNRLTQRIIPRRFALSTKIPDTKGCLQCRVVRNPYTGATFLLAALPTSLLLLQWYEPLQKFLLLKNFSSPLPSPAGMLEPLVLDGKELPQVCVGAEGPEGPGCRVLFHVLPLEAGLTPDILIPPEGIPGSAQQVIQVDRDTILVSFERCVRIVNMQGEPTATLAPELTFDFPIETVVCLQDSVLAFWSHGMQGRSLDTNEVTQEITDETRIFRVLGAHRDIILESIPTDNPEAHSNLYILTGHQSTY

[3] = test system: CT26; assay: Antitumor activity against mouse CT26 cells allografted in female BALB/c mouse assessed as tumor growth inhibition at 3 mg/kg, ip administered twice daily and measured on 13 day in presence of presence of anti-PD-1 relative to control; format: functional; conditions: CT26, 312 h, read-out: TGI
[4] = Plasma clearance in overnight fasted mouse at 1 mg/kg, iv; format: ADME, organism-based
[5] = biological target: T1, Mitogen-activated protein kinase kinase kinase kinase 1 (Homo sapiens, UniProt Q92918); assay: Inhibition of HPK1 in human Jurkat cells assessed as reduction in SLP76 phosphorylation pretreated for 1 hr followed by anti-CD3 addition and measured after 15 min by ELISA method; format: cell-based
Target sequence in this assay (Q92918 whole entry): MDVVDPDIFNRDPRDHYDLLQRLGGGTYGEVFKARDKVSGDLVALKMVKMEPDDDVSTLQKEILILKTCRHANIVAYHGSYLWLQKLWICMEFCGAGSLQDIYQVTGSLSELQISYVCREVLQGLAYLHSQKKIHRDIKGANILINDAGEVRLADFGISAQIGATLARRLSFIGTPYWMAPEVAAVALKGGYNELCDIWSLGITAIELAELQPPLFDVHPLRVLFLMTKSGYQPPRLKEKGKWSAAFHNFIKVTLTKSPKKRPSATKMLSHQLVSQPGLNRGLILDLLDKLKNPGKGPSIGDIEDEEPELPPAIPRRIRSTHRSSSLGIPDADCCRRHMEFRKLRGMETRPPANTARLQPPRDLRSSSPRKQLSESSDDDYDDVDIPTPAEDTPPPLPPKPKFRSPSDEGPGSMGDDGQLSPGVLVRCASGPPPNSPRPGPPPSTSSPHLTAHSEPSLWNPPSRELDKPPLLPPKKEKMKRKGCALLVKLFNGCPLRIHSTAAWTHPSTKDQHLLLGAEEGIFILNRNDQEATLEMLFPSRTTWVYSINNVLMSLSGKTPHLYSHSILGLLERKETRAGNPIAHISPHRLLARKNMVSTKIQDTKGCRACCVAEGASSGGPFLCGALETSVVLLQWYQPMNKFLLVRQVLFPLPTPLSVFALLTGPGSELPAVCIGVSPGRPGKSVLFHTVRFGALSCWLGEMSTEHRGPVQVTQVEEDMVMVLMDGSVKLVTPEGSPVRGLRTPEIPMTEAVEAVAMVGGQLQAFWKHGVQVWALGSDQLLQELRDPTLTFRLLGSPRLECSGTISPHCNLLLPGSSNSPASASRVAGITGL

[6] = biological target: Mitogen-activated protein kinase 11 (Homo sapiens) (UniProt Q15759); assay: Inhibition of P38beta (unknown origin) at 1000 nM incubated for 1 hrs by active site-directed competition binding assay relative to control
Sequence of Mitogen-activated protein kinase 11 (Homo sapiens) (Q15759 whole entry): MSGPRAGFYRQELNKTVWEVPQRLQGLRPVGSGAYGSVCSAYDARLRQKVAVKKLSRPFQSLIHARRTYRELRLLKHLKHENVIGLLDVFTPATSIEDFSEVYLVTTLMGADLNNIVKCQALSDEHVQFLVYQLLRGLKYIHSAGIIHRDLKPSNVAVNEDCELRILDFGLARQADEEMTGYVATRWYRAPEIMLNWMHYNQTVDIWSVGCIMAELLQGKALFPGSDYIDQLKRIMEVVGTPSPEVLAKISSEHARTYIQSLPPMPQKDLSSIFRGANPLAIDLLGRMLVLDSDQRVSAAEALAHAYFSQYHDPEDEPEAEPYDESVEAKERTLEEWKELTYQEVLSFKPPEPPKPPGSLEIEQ

[7] = Toxicity in CD-1 mouse assessed as body weight loss at 300 mg/kg, po; format: organism-based; conditions: in vivo
[8] = biological target: Mitogen-activated protein kinase kinase kinase 1 (Homo sapiens) (UniProt Q13233); assay: Inhibition of MAP3K1 (unknown origin) at 1000 nM incubated for 1 hrs by active site-directed competition binding assay relative to control; values are per cent of control
[9] = biological target: Mitogen-activated protein kinase 8 (Homo sapiens) (UniProt P45983); assay: Inhibition of JNK1 (unknown origin) at 1000 nM incubated for 1 hrs by active site-directed competition binding assay relative to control
[10] = biological target: Mitogen-activated protein kinase kinase kinase kinase 5 (Homo sapiens, UniProt Q9Y4K4); assay: Inhibition of GST-tagged recombinant human full length MAP4K5 expressed in insect cells preincubated for 10 min followed by fluorescein PKC and ATP addition and measured after 90 min by Envision2104 Multilabel Reader analysis; design: species or system Insect cell
Sequence of Mitogen-activated protein kinase kinase kinase kinase 5 (Q9Y4K4 whole entry, the tested form may be a part): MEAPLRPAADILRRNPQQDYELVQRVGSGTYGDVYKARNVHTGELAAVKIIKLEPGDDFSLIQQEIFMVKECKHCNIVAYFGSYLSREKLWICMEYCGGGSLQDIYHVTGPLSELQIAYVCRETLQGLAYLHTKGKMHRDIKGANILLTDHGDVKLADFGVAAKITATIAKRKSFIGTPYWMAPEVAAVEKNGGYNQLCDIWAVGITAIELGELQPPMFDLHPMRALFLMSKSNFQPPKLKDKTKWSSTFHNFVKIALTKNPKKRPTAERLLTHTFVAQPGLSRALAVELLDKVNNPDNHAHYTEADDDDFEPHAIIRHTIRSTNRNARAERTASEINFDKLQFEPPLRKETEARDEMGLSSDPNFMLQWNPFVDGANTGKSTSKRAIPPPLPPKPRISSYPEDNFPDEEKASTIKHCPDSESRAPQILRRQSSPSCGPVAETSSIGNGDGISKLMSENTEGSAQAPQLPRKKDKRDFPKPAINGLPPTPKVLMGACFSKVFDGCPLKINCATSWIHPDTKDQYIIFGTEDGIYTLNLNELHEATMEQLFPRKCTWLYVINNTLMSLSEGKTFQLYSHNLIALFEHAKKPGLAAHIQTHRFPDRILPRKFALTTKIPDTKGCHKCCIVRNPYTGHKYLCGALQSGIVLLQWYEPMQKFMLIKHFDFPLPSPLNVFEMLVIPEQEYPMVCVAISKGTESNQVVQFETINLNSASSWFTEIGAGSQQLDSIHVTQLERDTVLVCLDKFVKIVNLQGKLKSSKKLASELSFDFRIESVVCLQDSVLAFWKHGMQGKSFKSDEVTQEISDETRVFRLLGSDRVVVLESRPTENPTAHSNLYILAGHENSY

[11] = Inhibition of N-terminal His-tagged recombinant human TAK1(1 to 303 residues) expressed in Sf21 insect cells preincubated for 10 min followed by inactive MEK1 and ATP addition and measured after 90 min by Envision2104 Multilabel Reader analysis
[12] = biological target: Mitogen-activated protein kinase 12 (Homo sapiens) (UniProt P53778); assay: Inhibition of P38gamma (unknown origin) at 1000 nM incubated for 1 hrs by active site-directed competition binding assay relative to control
[13] = Half life in overnight fasted mouse at 1 mg/kg, iv; format: ADME, organism-based; conditions: in vivo
[14] = biological target: Mitogen-activated protein kinase kinase kinase kinase 1 (Mus musculus) (UniProt P70218); assay: In vivo inhibition of HPK1 in female BALB/c mouse assessed as reduction in SLP76 phosphorylation in spleen at 100 mg/kg qd, ip and measured after 24 hrs post dosing by Western blot analysis relative to control; format: functional, organism-based
Sequence of Mitogen-activated protein kinase kinase kinase kinase 1 (Mus musculus) (P70218 whole entry): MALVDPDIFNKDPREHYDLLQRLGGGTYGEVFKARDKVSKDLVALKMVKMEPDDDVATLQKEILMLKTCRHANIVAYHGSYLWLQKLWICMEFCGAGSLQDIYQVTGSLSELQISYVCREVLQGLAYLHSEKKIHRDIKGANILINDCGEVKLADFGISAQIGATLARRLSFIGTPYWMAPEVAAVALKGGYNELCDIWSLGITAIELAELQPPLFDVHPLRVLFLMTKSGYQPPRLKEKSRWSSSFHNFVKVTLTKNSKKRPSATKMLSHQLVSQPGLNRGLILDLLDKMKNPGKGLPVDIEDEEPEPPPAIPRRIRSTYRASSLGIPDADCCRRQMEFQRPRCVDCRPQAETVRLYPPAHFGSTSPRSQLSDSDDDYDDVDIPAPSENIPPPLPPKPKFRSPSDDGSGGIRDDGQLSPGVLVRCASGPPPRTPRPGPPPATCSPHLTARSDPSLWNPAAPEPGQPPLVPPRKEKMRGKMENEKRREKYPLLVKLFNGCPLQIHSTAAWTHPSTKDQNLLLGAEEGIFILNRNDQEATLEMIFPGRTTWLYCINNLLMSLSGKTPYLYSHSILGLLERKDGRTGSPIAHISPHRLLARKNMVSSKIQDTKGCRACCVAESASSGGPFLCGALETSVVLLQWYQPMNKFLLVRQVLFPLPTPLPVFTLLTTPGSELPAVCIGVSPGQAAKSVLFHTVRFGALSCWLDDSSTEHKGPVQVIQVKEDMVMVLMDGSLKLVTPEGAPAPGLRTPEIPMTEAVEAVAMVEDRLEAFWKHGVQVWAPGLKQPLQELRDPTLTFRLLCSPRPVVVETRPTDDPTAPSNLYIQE

[15] = biological target: RAC-beta serine/threonine-protein kinase (Homo sapiens) (UniProt P31751); assay: Inhibition of AKT2 (unknown origin) at 1000 nM incubated for 1 hrs by active site-directed competition binding assay relative to control; values are per cent of control
[16] = biological target: Mitogen-activated protein kinase 1 (Homo sapiens) (UniProt P28482); assay: Inhibition of ERK2 (unknown origin) at 1000 nM incubated for 1 hrs by active site-directed competition binding assay relative to control
Sequence of Mitogen-activated protein kinase 1 (Homo sapiens) (P28482 whole entry): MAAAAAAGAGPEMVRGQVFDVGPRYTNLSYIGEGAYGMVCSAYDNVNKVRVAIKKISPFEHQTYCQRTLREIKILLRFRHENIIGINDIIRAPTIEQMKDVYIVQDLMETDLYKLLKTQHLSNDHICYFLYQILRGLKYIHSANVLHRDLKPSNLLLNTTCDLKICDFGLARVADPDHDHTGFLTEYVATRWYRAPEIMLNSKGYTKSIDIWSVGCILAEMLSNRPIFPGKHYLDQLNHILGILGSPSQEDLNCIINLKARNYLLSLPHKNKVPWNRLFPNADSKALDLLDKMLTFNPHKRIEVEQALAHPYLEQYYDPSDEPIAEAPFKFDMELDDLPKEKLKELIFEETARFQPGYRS

[17] = species on record: Homo sapiens; assay: Inhibition of TAK1 (unknown origin) at 1000 nM incubated for 1 hrs by active site-directed competition binding assay relative to control
[18] = biological target: Calcium/calmodulin-dependent protein kinase type IV (Homo sapiens) (UniProt Q16566); assay: Inhibition of CAMK4 (unknown origin) at 1000 nM incubated for 1 hrs by active site-directed competition binding assay relative to control; values are per cent of control
[19] = biological target: RAC-gamma serine/threonine-protein kinase (Homo sapiens) (UniProt Q9Y243); assay: Inhibition of AKT3 (unknown origin) at 1000 nM incubated for 1 hrs by active site-directed competition binding assay relative to control; values are per cent of control
[20] = biological target: Tyrosine-protein kinase Lck (Homo sapiens) (UniProt P06239); assay: Inhibition of LCK (unknown origin) at 1000 nM incubated for 1 hrs by active site-directed competition binding assay relative to control; values are per cent of control
[21] = biological target: T1, Mitogen-activated protein kinase kinase kinase kinase 1; assay: Inhibition of N-terminal DYKDDDDK recombinant human HPK1 (1 to 346 residues) expressed in Sf21 insect cells preincubated for 10 min followed by fluorescein PKC and ATP addition and measured after 90 min by Envision2104 Multilabel Reader analysis
Target sequence in this assay (Q92918 whole entry): as the sequence (Q92918 whole entry) above

[22] = biological target: Tyrosine-protein kinase ITK/TSK (Homo sapiens) (UniProt Q08881); assay: Inhibition of ITK (unknown origin) at 1000 nM incubated for 1 hrs by active site-directed competition binding assay relative to control
[23] = Toxicity against BALB/c mouse […] with mouse CT26 cells assessed as body weight loss at 3 mg/kg, ip administered twice daily and measured on 13 day in presence of presence of anti-PD-1; format: organism-based; conditions: in vivo, 312 h
[24] = Cmax in overnight fasted rat at 10 mg/kg, po; format: ADME, organism-based; conditions: in vivo
[25] = biological target: Misshapen-like kinase 1 (Homo sapiens, UniProt Q8N4C8); assay: Inhibition of N-terminal GST-tagged recombinant human MAP4K6 (7 to 139 residues) expressed in Sf21 insect cells preincubated for 10 min followed by fluorescein PKC and ATP addition and measured after 90 min by Envision2104 Multilabel Reader analysis
[26] = biological target: Inhibitor of nuclear factor kappa-B kinase subunit beta (Homo sapiens) (UniProt O14920); assay: Inhibition of IKKbeta (unknown origin) at 1000 nM incubated for 1 hrs by active site-directed competition binding assay relative to control
Sequence of Inhibitor of nuclear factor kappa-B kinase subunit beta (Homo sapiens) (O14920 whole entry): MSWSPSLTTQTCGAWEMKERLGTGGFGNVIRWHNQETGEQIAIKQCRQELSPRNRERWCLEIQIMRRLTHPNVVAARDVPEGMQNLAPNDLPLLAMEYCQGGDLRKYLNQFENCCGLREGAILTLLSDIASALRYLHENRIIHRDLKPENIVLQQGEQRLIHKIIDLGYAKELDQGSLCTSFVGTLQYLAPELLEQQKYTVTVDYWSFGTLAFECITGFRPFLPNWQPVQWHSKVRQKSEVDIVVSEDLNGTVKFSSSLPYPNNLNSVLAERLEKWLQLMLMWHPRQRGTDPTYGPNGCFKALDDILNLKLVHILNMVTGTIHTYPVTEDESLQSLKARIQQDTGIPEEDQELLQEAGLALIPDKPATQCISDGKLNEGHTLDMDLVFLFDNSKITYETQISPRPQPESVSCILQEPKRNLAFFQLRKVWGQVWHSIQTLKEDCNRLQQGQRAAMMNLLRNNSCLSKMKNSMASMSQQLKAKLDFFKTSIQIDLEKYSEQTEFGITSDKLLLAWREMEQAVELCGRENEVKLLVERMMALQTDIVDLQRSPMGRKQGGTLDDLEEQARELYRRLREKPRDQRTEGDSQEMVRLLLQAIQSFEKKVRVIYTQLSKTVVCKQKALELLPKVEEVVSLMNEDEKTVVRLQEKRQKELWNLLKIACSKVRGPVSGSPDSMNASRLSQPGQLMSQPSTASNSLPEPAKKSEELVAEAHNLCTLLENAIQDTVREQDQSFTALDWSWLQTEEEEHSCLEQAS

[27] = biological target: T1, Mitogen-activated protein kinase kinase kinase kinase 1; assay: Inhibition of human HPK1 at 1000 nM incubated for 1 hrs by active site-directed competition binding assay relative to control; values are per cent of control
Target sequence in this assay (Q92918 whole entry, looked up): as the sequence (Q92918 whole entry) above

[28] = Oral bioavailability in in overnight fasted rat at 10 mg/kg; format: ADME, organism-based; conditions: in vivo
[29] = Cmax in overnight fasted mouse at 10 mg/kg, po; format: ADME, organism-based; conditions: in vivo
[30] = Half life in overnight fasted rat at 1 mg/kg, iv; format: ADME, organism-based; conditions: in vivo
[31] = AUC (0 to 24 hrs) in overnight fasted rat at 10 mg/kg, po; format: ADME, organism-based; conditions: in vivo
[32] = biological target: Mitogen-activated protein kinase kinase kinase kinase 1 (Mus musculus) (UniProt P70218); assay: In vivo inhibition of HPK1 in female BALB/c mouse assessed as reduction in SLP76 phosphorylation in spleen at 100 mg/kg qd, ip and measured after 3 hrs post dosing by Western blot analysis relative to control; format: functional, organism-based

O=c1[nH]ccc2c(-c3cnc4cc(F)ccn34)ccc(Nc3ccc(C4CCOCC4)c(CN4CC[C@H](F)C4)n3)c12
AUC(0-t) [1]: 4140 ng·h/mL
IC50 [2]: 448 nM
inhibition in vivo at 3 mg/kg [3]: 95%
clearance [4]: 46 mL/min/kg
EC50 [5]: 41 nM
inhibition [6]: 84%
Activity [7]: Non-toxic
percent of control [8]: 100%
inhibition [9]: 96%
IC50 [10]: 104 nM
IC50 [11]: 4740 nM
inhibition [12]: 36%
half-life [13]: 36 min
inhibition [14]: 50%
percent of control [15]: 100%
inhibition [16]: 69%
inhibition [17]: 1.5%
percent of control [18]: 100%
percent of control [19]: 100%
percent of control [20]: 100%
IC50 [21]: 10.4 nM
inhibition [22]: 94%
Activity [23]: Non-toxic
Cmax [24]: 518 ng/mL
IC50 [25]: 168 nM
inhibition [26]: 93%
percent of control [27]: 0.6%
bioavailability [28]: 80%
Cmax [29]: 1800 ng/mL
half-life [30]: 48 min
AUC(0-t) [31]: 2010 ng·h/mL
inhibition [32]: 100%
